No end group written: not given here.

The values that follow come from US7999069B2, “EphB receptor-binding peptides” (Sanford-Burnham Medical Research Institute, priority 2005, dated 2011).

The test system of test [1] is EphB receptors. As to the kind of experiment: Peptide pull-down of endogenous EphB receptors from lysates. Type of test: binding. The conditions noted are these: peptide on streptavidin beads; mouse brain or cultured cell lysates. The protocol: The ability of the peptides to bind in a stable manner, which is important for both targeting and competitive inhibition, was tested in pull-down experiments. For peptide pull-down experiments, cells in 60 cm plates at 70% confluency or adult mouse brain tissue were solubilized in pull-down buffer (50 mM HEPES pH 7.5, 150 mM NaCl, 10% glycerol, 1% Triton-X100, 5 mM KCl and 1 mM EDTA). Three μg of biotinylated peptide were incubated for 45-90 min with 5 μl streptavidin agarose beads (Sigma), unbound peptide was washed away, and the beads were incubated with the cell lysates for 45-90 min. Proteins bound to the beads were separated by SDS-polyacrylamide gel electrophoresis and probed by immunoblotting with EphB1, EphB2, or EphB4 antibodies. The EphB1 antibody (Santa Cruz) was detected with a secondary anti-goat IgG peroxidase-conjugated antibody (BioRad Laboratories). The EphB2 and EphB4 antibodies were affinity-purified polyclonal antibodies to GST fusion proteins containing approximately 100 amino acids from the carboxy-terminal tails of the EphB2 or EphB4 receptors (Noren, N. K. et al. 2004 PNAS USA 101:5583-5588; Holash, J. A. & Pasquale, E. B. 1995 Devel Biol 172:683-693) and were detected with a secondary anti-rabbit IgG peroxidase-conjugated antibody (Amersham Biosciences). […]

The target of test [2] is T1, EphB1 (Homo sapiens, UniProt P54762).
T1 construct: panned on the ectodomains of EphB1, EphB2, or EphB4 fused to human Fc
T1 sequence (P54762 18-540 limits assumed): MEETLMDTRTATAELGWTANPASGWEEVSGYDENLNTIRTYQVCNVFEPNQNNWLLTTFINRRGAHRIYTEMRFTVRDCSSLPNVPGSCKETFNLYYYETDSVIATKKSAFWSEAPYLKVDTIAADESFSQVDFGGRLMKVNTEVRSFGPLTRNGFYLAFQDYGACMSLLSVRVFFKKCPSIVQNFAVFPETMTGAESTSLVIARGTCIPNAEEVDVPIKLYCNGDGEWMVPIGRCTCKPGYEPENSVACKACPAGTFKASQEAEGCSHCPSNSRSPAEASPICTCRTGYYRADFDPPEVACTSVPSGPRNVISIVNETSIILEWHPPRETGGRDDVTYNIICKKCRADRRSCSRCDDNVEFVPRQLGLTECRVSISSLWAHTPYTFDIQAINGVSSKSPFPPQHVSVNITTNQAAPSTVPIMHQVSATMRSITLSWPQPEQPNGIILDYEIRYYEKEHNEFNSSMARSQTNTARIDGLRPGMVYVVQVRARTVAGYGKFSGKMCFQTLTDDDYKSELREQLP
As to the kind of experiment: Peptide competition of phage binding to EphB1 ectodomain. The protocol:
To measure peptide competition of phage binding to EphB receptors, Ni-NTA wells coated with Eph ectodomain Fc were incubated for 30 min at room temperature with various peptide concentrations in binding buffer (100 μl/well). Concentrated stocks of phage clones diluted between 1:500 and 1:10,000 in binding buffer were then added to the wells for a 1 hr at room temperature. Wells were washed and bound phage were detected using the anti-M13 antibody. A biotinylated control peptide with sequence unrelated to the sequences of the Eph-binding peptides ([…], SEQ ID NO: 40) was used as a negative control in some of the experiments, as indicated in the figure legends.
[…]. The SNEW peptide at 25 μM inhibited EphB2 binding of most phage clones isolated by panning on EphB2 (FIGS. 2E and G). The only exceptions were the IHWP, DHRWV and WHWT clones. However, binding of these clones was inhibited by 50 μM SNEW peptide, particularly when the phage concentration was halved. […] Bound phage were detected using anti-M13 phage antibody coupled to HRP and phage binding in the presence of peptide was normalized to phage binding in the absence of peptide. Error bars indicate standard deviation from duplicate measurements, and were calculated taking into account propagation of errors.

Test [3] concerns Eph receptor Fc proteins. The test is described as follows: Immobilized biotinylated peptides capturing Eph receptor Fc proteins on streptavidin plates. The conditions noted are these: A- and B-class Eph receptor Fc proteins. The test is classed as binding.
Experimental: To measure the specificity of peptide binding to Eph receptors, biotinylated peptides were immobilized on streptavidin-coated plates at 10 μM (Pierce Biotechnology, Rockford, Ill.) and incubated for 1 hr with different Eph ectodomain Fc fusion proteins at 2.5 μg/ml in binding buffer. Bound receptor was detected using an anti-Fc antibody coupled to alkaline phosphatase (Promega) with p-nitrophenylphosphate as substrate (Pierce). The background that was subtracted from the measurements was determined by omitting the Eph ectodomain.
Most of the peptides were synthesized with a biotin tag and immobilized on streptavidin plates to verify their ability to capture the EphB ectodomains used for their isolation.
Biotinylated peptides were immobilized on streptavidin-coated plates and used to capture Eph receptor Fc proteins. Bound receptor was detected using anti-Fc antibody coupled to alkaline phosphatase and was normalized to the value in the well with highest receptor binding.

For the sequence EWLSPNLAPSVR [SEQ ID NO 1], in test [1], the “Stable binding of EphB receptors in pull-down” value was “stably bind EphB receptors”. Besides, in test [2] (5 μM peptide), the “Inhibition of EphB1 binding of phage clones isolated by panning on EphB1” value was “inhibited EphB1 binding of the phage clones isolated by panning on EphB1”. The “Inhibition of binding of the corresponding phage clone to EphB1” value in test [2] (concentration-dependent) is listed as “efficiently inhibited binding”. In addition, the “Eph receptor binding selectivity of immobilized biotinylated peptide” value in test [3] was “bound selectively to EphB1”.
